Earlier results as cited in patent publication EP0716679B1, “METHOD OF CLEANING VINYL SURFACES BY MEANS OF MILDLY ACIDIC HARD SURFACE CLEANING COMPOSITIONS CONTAINING AMINE OXIDE DETERGENT SURFACTANTS” (THE PROCTER & GAMBLE COMPANY, priority 1993, dated 1995).
Where two headings read alike, the source gives them in different places.

| pKa of acidifying agent (first pKa) | pKa of acidifying agent (fourth pKa printed) | pKa of acidifying agent (second pKa) | pKa of acidifying agent (third pKa printed) | SMILES |
| --- | --- | --- | --- | --- |
| 1.7 | 10.6 | 2.6 | 6.3 | O=C(O)CN(CCN(CC(=O)O)CC(=O)O)CC(=O)O [Ethylene diamine tetraacetic acid] |

| SMILES | pKa of acidifying agent (first pKa) | pKa of acidifying agent (fourth pKa printed) | pKa of acidifying agent (second pKa) | pKa of acidifying agent (third pKa printed) |
| --- | --- | --- | --- | --- |
| O=C(O)CC(O)C(=O)O (stereo not shown) [Malic acid] | – | – | 5.05 | – |
